{"source": "PubChem BioAssay (NCI)", "note": "Values joined by “and” are separate entries in the source; they are usually repeats but may differ in a detail not shown here. Identical values can stand only once.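 Step 1: Grow cells in 96-well plates. Step 2: Expose to compound for 48 hours at 5 concentrations. Step 3: Interpolate endpoints linearly; if unreached, use highest concentration. GI50: concentration for 50% inhibition of growth. TGI marks complete inhibition of growth.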", "data": [{"system": "SR leukemia", "experiment": "NCI anticancer screen, dose series, 48 h", "units": {"GI50": "µM"}, "values": [{"smiles": "O=C(O)c1ccccc1CC(Cc1ccc2c(c1)CCC2)C(=O)O", "note": "(stereo unspecified)", "TGI": "> 100 µM"}, {"smiles": "Cn1c(SCc2ccc(F)cc2)nnc1C12CC3CC(CC(C3)C1)C2", "TGI": "93.9 µM"}, {"smiles": "COC(=O)/C=C\\C(C#N)(C#N)N=Cc1ccc(C)cc1", "TGI": "3.8 µM"}, {"smiles": "CC(c1ccccc1)N1CCN(C(C)c2ccccc2)CC1", "note": "(stereo unspecified)", "TGI": "> 100 µM"}, {"smiles": "COc1ccc(C(=O)/C=C/c2ccc(OCCCOc3ccc(/C=C/C(=O)c4ccc(OC)cc4)cc3)cc2)cc1", "TGI": "> 100 µM"}, {"smiles": "O=C(O)COc1ccccc1C(=O)Nc1ccccc1", "TGI": "> 100 µM"}, {"smiles": "COc1ccc(N2C(=O)CC(=O)N(NC(=O)C(C)Oc3ccccc3C)C2=S)cc1", "note": "(stereo unspecified)", "TGI": "> 100 µM"}, {"smiles": "COc1ccc(C2c3cn[nH]c3CC3CCCCC32)cc1", "note": "(stereo unspecified)", "TGI": "57.1 µM"}, {"smiles": "C/C(=N\\N=C1/C(=O)OC(c2ccccc2)=C1C(=O)c1ccccc1)c1ccc([N+](=O)[O-])cc1", "TGI": "34.6 µM"}, {"smiles": "O=S(=O)(O)C(CO)c1ccccc1", "note": "(stereo unspecified) (tested in a mixture with another compound)", "TGI": "> 100 µM"}, {"smiles": "O=C1CC2(CCC(O)(c3ccc4ccccc4c3)C(C(=O)c3ccc4ccccc4c3)C2)C(=O)c2ccccc2N1", "note": "(stereo unspecified)", "TGI": "> 100 µM"}, {"smiles": "Cc1nc(C)c(N2CCN([N+](=O)[O-])CC2)c(=O)[nH]1", "TGI": "> 100 µM"}, {"smiles": "Cc1nn(-c2ccccc2)c2c1C(c1cc3ccccc3nc1Cl)NC(=O)N2", "note": "(stereo unspecified)", "TGI": "> 100 µM"}, {"smiles": "Cc1cc(/N=C/c2ccc(N(C)C)cc2)n(-c2ccccc2)n1", "TGI": "> 100 µM"}, {"smiles": "O=C(/C=C/c1ccccc1)Oc1ccc(C(=O)/C=C/c2ccccc2)cc1", "TGI": "6.82 µM"}, {"smiles": "CCOC(=O)N1CCC(N[C@@H]2c3cc4c(cc3C(c3cc(OC)c(O)c(OC)c3)C3C(=O)OC[C@@H]32)OCO4)CC1", "note": "(stereo partly specified)", "TGI": "3.21 µM and > 25 µM"}, {"smiles": "NS(=O)(=O)c1ccc(NC(=S)/N=C/C2=C(O)c3ccccc3C2=O)cc1", "TGI": "> 100 µM"}, {"smiles": "O=C1NC2c3c(I)sc(I)c3C(O)C2O1", "note": "(stereo unspecified)", "TGI": "> 100 µM"}, {"smiles": "CNc1cc2c(c3ccccc13)C(CCl)CN2C(=O)c1cc2cc(OC)c(OC)c(OC)c2[nH]1", "note": "(stereo unspecified)", "TGI": "0.00402 µM"}, {"smiles": "NCCCN1c2ccccc2Sc2ccc(Cl)cc21", "TGI": "> 8.89 µM"}, {"smiles": "CCOC(=O)c1cccc(N=Nc2nc[nH]c2/C=C/C(=O)OC)c1", "TGI": "12 µM"}, {"smiles": "O=C(O)CN1CCN2CCCCCN(CC1)CCN(CC(=O)O)CC2", "TGI": "> 100 µM"}, {"smiles": "Cc1cccc(C)c1NC(=O)C(Cc1c[nH]c2ccccc12)NC(=O)OCc1ccccc1", "note": "(stereo unspecified)", "TGI": "85.7 µM"}, {"smiles": "Clc1ccc(-c2nnc3sc4nc5ccccc5c-4nn23)c(Cl)c1", "TGI": "> 100 µM"}, {"smiles": "N#CC(C#N)=C1SC(=Nc2ccccc2)C(=Nc2ccccc2)N1c1ccccc1", "TGI": "> 26.2 µM"}, {"smiles": "Cc1ccc(C2=CC(=O)OC(C[P+](c3ccccc3)(c3ccccc3)c3ccccc3)(c3ccccc3)O2)cc1", "note": "(stereo unspecified)", "TGI": "61.2 µM"}, {"smiles": "Cc1ccc(S(=O)(=O)n2c3c(c4ccccc42)CCN2C[C@H]([C@H](C)Br)CC[C@@H]32)cc1", "TGI": "> 100 µM"}, {"smiles": "O=c1oc2cc(O)ccc2c(O)c1C(c1ccccc1)c1c(O)c2ccc(O)cc2oc1=O", "TGI": "> 100 µM"}, {"smiles": "C[n+]1c(/C=C/c2c(O)ccc3ccccc23)ccc2ccccc21", "GI50": 1.21, "TGI": "3.31 µM"}, {"smiles": "O=C1c2cc(-c3ccccc3)cnc2S(=O)(=O)N1c1ccc(Br)cc1", "TGI": "35 µM"}, {"smiles": "O=C(NCP(=O)(Oc1ccccc1)Oc1ccccc1)OCc1ccccc1", "TGI": "> 100 µM"}, {"smiles": "COC1=CC(=O)c2c(c(-c3nc(C)cs3)cn2C)C1=O", "TGI": "> 50.8 µM"}, {"smiles": "C=CCn1c(=O)c(C(=O)Nc2nc(C34CC5CC(CC(C5)C3)C4)cs2)c(O)c2ccccc21", "TGI": "> 100 µM"}, {"smiles": "C=CCc1cc(-c2nc(=S)[nH][nH]2)ccc1N=NNc1ccc(C(=O)O)cc1", "TGI": "> 100 µM"}, {"smiles": "CC(C)SC(=S)Sc1c(Cl)c(Cl)nc(Cl)c1Cl", "TGI": "11.3 µM"}, {"smiles": "O=C(O)CN1CCNCCN(CC(=O)O)CCN(CC(=O)O)CCNCC1", "TGI": "> 100 µM"}]}, {"system": "KM12 colon", "experiment": "NCI anticancer screen, dose series, 48 h", "units": {"TGI": "µM"}, "values": [{"smiles": "CCN1CN(c2ccccc2)C2(CCN(CC3COc4ccccc4O3)CC2)C1=O", "note": "(stereo unspecified)", "TGI": 36.5}, {"smiles": "C=C1C(=O)CC2C1CC(=O)/C(C)=C/CCC(C)(O)C2O", "note": "(stereo unspecified)", "TGI": 29.8}, {"smiles": "O=C1C=C/C(=N\\N=C(c2ccccc2)c2ccccc2)O1", "TGI": "> 10"}, {"smiles": "C[C@H](CCC(=O)O)[C@H]1CC[C@H]2[C@@H]3C(=O)C[C@@H]4C[C@H](O)CC[C@]4(C)[C@H]3C[C@H](O)[C@]12C", "TGI": "> 100"}, {"smiles": "CC(=O)NC1C(OCc2ccccc2)OC(CO)C(O)C1OCC(=O)N[C@@H](C)C(=O)N[C@H](CCC(=O)NCCCNc1c2ccccc2nc2cccc([N+](=O)[O-])c12)C(N)=O", "note": "(stereo partly specified)", "TGI": 0.397}, {"smiles": "O=C(O)c1ccccc1CC(Cc1ccc2c(c1)CCC2)C(=O)O", "note": "(stereo unspecified)", "TGI": "> 100"}, {"smiles": "COC(=O)/C=C\\C(C#N)(C#N)N=Cc1ccc(C)cc1", "TGI": 35.3}, {"smiles": "CC(c1ccccc1)N1CCN(C(C)c2ccccc2)CC1", "note": "(stereo unspecified)", "TGI": "> 100"}, {"smiles": "COc1ccc(C(=O)/C=C/c2ccc(OCCCOc3ccc(/C=C/C(=O)c4ccc(OC)cc4)cc3)cc2)cc1", "TGI": "> 100"}, {"smiles": "O=C(O)COc1ccccc1C(=O)Nc1ccccc1", "TGI": "> 100"}, {"smiles": "COc1ccc(N2C(=O)CC(=O)N(NC(=O)C(C)Oc3ccccc3C)C2=S)cc1", "note": "(stereo unspecified)", "TGI": "> 100"}, {"smiles": "C/C(=N\\N=C1/C(=O)OC(c2ccccc2)=C1C(=O)c1ccccc1)c1ccc([N+](=O)[O-])cc1", "TGI": "> 100"}, {"smiles": "O=S(=O)(O)C(CO)c1ccccc1", "note": "(stereo unspecified) (tested in a mixture with another compound)", "TGI": "> 100"}, {"smiles": "Cc1nc(C)c(N2CCN([N+](=O)[O-])CC2)c(=O)[nH]1", "TGI": "> 100"}]}]}
